Consider 22 compounds from patent US9957251B2 (Takeda Pharmaceutical Company Limited, priority 2014, dated 2018).

One test deals with T1, CDK8/CycC (Homo sapiens, UniProt P49336).
T1 construct: purchased Carna Biosciences
Kind of test: CDK8 inhibitory activity (TR-FRET, Kinase Tracer-236 displacement). It is filed as binding. The conditions noted are these: 1 μM of the test compound; read-out: Percent inhibition of CDK8 activity (%). The procedure: (§1) The compound of the present invention was evaluated for its CDK8 inhibitory activity and CDK19 inhibitory activity by the following method. […] The primary diluted solution was dispensed in the amount of 2 μL/well to a 384-well plate, and then, a mixed solution of Eu^3+ Cryptate conjugated mouse monoclonal antibody anti-glutathione S-transferase (Cisbio) diluted 267-fold with an assay buffer and 60 nM Kinase Tracer-236 (Life technologies) was added thereto at 2 μL/well. After the addition, each kinase solution (84 ng/mL CDK8/CycC (Carna Biosciences) diluted with an assay buffer used for CDK8 inhibitory activity measurement, and 87 ng/mL CDC2L6/CycC (Carna Biosciences) diluted with an assay buffer used for CDK19 inhibitory activity measurement) was further added thereto at 2 μL/well. After the addition, the plate was left standing at room temperature for 1 hour, and then, the fluorescence intensity (excitation wavelength 320 nm, fluorescence wavelength 615 nm, 665 nm, delay time 50 μsec) was measured using an EnVision plate reader (PerkinElmer).

Another test addresses T2, CDK19 (CDC2L6/CycC) (Homo sapiens, UniProt Q9BWU1).
T2 construct: purchased Carna Biosciences
Kind of test: CDK19 inhibitory activity (TR-FRET, Kinase Tracer-236 displacement). It is filed as binding. Conditions: 1 μM of the test compound; read-out: Percent inhibition of CDK19 activity (%). As to the method: as §1
Background: In TR-FRET formats the signal depends on donor and acceptor labels being close together.

For test [1], the system named is human multiple myeloma RPMI8226 cells. Kind of test: Inhibitory activity against human multiple myeloma RPMI8226 cell growth (CellTiter-Glo). It is filed as cell-based. The conditions noted are these: Homo sapiens, RPMI-8226, 192 h, 1 μM of the test compound, cultured for 8 days; read-out: Percent inhibition of RPMI8226 cell growth (%). As to the method:
The compound of the present invention was evaluated for its inhibitory activity against human multiple myeloma RPMI8226 cell growth by the following method.
A suspension of human multiple myeloma RPMI8226 cells (purchased from the Health Protection Agency) was inoculated at 40 μL (300 cells/well) to a 384-well plate and cultured at 37° C. for 1 day in a 5% CO2 incubator. After the culture, each test compound solution was added thereto at a test concentration of 1 μM using TECAN D300, and the cells were further cultured for 8 days. After the culture, CellTiter-Glo™ Luminescent Cell Viability Assay reagent (Promega) was added at 40 μL/well to a 384-well plate, and the amount of luminescence was measured using a luminometer. Inhibitory activity against human multiple myeloma RPMI8226 cell growth (percent inhibition (%)) of the test compound was calculated according to the following formula, which is based on the hypothesis that the amount of residual ATP reflects the number of cells. In this formula, 100% control represents the amount of luminescence from a well with only 0.1% DMSO added. Percent inhibition (%)=(1−(amount of luminescence of the test compound)÷(100% control))×100

T1 sequence (P49336 whole entry): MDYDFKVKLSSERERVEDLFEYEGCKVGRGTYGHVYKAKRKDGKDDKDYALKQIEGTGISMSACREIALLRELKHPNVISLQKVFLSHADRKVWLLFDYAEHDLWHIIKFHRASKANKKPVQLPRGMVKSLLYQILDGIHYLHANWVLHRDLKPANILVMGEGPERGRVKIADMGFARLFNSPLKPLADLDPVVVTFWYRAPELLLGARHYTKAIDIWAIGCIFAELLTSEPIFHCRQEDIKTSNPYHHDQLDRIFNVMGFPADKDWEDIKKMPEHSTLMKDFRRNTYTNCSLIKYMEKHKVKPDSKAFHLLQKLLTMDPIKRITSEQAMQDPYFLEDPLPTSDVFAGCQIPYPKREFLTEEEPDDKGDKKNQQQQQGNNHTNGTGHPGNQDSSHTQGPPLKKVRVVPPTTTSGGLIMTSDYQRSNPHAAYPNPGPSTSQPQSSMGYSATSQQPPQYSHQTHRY
T1 sequence (P24863 whole entry partner): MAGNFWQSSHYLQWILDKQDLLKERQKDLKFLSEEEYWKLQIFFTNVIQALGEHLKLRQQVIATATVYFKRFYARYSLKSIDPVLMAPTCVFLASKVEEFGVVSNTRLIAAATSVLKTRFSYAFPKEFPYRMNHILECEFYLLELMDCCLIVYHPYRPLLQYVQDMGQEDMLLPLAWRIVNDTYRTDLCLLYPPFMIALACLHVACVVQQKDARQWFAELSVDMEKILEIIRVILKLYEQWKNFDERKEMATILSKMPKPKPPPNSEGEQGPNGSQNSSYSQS
T2 sequence (Q9BWU1 whole entry): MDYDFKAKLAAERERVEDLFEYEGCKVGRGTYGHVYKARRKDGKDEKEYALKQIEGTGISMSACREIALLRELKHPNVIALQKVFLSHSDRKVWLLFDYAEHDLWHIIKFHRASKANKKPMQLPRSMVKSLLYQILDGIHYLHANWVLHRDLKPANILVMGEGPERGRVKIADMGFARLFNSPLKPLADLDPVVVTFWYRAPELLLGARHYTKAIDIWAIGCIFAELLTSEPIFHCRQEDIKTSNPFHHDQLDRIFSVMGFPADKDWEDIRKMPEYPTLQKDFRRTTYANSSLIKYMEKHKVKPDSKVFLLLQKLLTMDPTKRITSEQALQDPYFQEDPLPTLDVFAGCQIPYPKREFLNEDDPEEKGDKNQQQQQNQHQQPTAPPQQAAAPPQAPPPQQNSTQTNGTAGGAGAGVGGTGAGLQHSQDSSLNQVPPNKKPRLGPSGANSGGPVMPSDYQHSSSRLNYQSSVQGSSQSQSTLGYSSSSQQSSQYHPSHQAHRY
T2 sequence (P24863 whole entry partner): as the sequence (P24863 whole entry partner) above

Broadly, the inhibition is the relative decrease from the control value, in per cent. Consider `Cn1cc(-c2ccncc2/C=C/C(=O)Nc2ccc(CNCC(F)(F)C(F)(F)F)cc2)cn1` [Example 73, (2E)-3-(4-(1-methyl-1H-pyrazol-4-yl)pyridin-3-yl)-N-(4-(((2,2,3,3,3-pentafluoropropyl)amino)methyl)phenyl)acrylamide], for which the values for the inhibition at 1 µM (at CDK8/CycC; at CDK19 (CDC2L6/CycC); in test [1]) were 101%, 99% and 56%, respectively.
In the same order, the values of `Cn1cc(-c2ccncc2/C=C/C(=O)Nc2ccc(CN3CCCC3CO)cc2)cn1` (stereo not drawn) [Example 76, (2E)-N-(4-((2-(hydroxymethyl)pyrrolidin-1-yl)methyl)phenyl)-3-(4-(1-methyl-1H-pyrazol-4-yl)pyridin-3-yl)acrylamide] are 104%, 93% and 52%.
The like results for `Cn1cc(-c2ccncc2/C=C/C(=O)Nc2ccc(CN3CCN4CCCC4C3)cc2)cn1` (stereo not drawn) [Example 78, (2E)-N-(4-(hexahydropyrrolo[1,2-a]pyrazin-2(1H)-ylmethyl)phenyl)-3-(4-(1-methyl-1H-pyrazol-4-yl)pyridin-3-yl)acrylamide] were, in that order, 100%, 74% and 59%.
The like results for `Cn1cc(-c2ccncc2/C=C/C(=O)Nc2ccc(CN3CCC4(CC3)COC4)cc2)cn1` [Example 84, (2E)-3-(4-(1-methyl-1H-pyrazol-4-yl)pyridin-3-yl)-N-(4-(2-oxa-7-azaspiro[3.5]non-7-ylmethyl)phenyl)acrylamide] were, in that order, 97%, 97% and 60%.
As for `Cn1cc(-c2ccncc2/C=C/C(=O)Nc2ccc(CNC3CC(F)(F)C3)cc2)cn1` [Example 89, (2E)-N-(4-(((3,3-difluorocyclobutyl)amino)methyl)phenyl)-3-(4-(1-methyl-1H-pyrazol-4-yl)pyridin-3-yl)acrylamide], the inhibition at 1 µM on CDK8/CycC is 96%; on CDK19 (CDC2L6/CycC) it was 97%; in test [1], 63%.
The like results for `Cn1cc(-c2ccncc2/C=C/C(=O)Nc2ccc(CCN3CCOCC3)cc2)cn1` [Example 91, (2E)-3-(4-(1-Methyl-1H-pyrazol-4-yl)pyridin-3-yl)-N-(4-(2-(morpholin-4-yl)ethyl)phenyl)acrylamide] were, in that order, 96%, 101% and 59%.
Turning to `CCn1cc(-c2ccncc2/C=C/C(=O)Nc2ccc(CN3CCOCC3)cc2)cn1` [Example 92, (2E)-3-(4-(1-Ethyl-1H-pyrazol-4-yl)pyridin-3-yl)-N-(4-(morpholin-4-ylmethyl)phenyl)acrylamide], the inhibition at 1 µM at CDK8/CycC stood at 96%; on CDK19 (CDC2L6/CycC) it was 100%; in test [1] it was 63%.
The like results for `O=C(/C=C/c1cnccc1-c1cnn(Cc2ccccc2)c1)Nc1ccc(CN2CCOCC2)cc1` [Example 93, (2E)-3-(4-(1-benzyl-1H-pyrazol-4-yl)pyridin-3-yl)-N-(4-(morpholin-4-ylmethyl)phenyl)acrylamide] were, in that order, 101%, 101% and 63%.
Regarding `O=C(/C=C/c1cnccc1-c1cnn(C(F)F)c1)Nc1ccc(CN2CCOCC2)cc1` [Example 98, (2E)-3-(4-(1-(Difluoromethyl)-1H-pyrazol-4-yl)pyridin-3-yl)-N-(4-(morpholin-4-ylmethyl)phenyl)acrylamide], the inhibition at 1 µM at CDK8/CycC amounted to 98%; at CDK19 (CDC2L6/CycC), 100%; in test [1], 53%.
In the same order, the values of `CCn1cc(-c2ccncc2CCC(=O)Nc2ccc(CN3CCOCC3)cc2)cn1` [Example 99, 3-(4-(1-Ethyl-1H-pyrazol-4-yl)pyridin-3-yl)-N-(4-(morpholin-4-ylmethyl)phenyl)propanamide] are 90%, 85% and 62%.
For `COc1ccsc1-c1ccncc1/C=C/C(=O)Nc1ccc(CN2CCOCC2)cc1` [Example 100, (2E)-3-(4-(3-methoxy-2-thienyl)pyridin-3-yl)-N-(4-(morpholin-4-ylmethyl)phenyl)acrylamide], the inhibition at 1 µM at CDK8/CycC was determined as 97%; at CDK19 (CDC2L6/CycC) it was 100%; in test [1] it was 52%.
`O=C(/C=C/c1cnccc1-c1cnn2ccccc12)Nc1ccc(CN2CCOCC2)cc1` [Example 101, (2E)-N-(4-(morpholin-4-ylmethyl)phenyl)-3-(4-(pyrazolo[1,5-a]pyridin-3-yl)pyridin-3-yl)acrylamide]: the inhibition at 1 µM worked out at 98% on CDK8/CycC, 97% on CDK19 (CDC2L6/CycC) and 55% in test [1].
For `O=C(/C=C/c1cnccc1-c1cnn(CC2CC2)c1)Nc1ccc(CCN2CCOCC2)cc1` [Example 108, (2E)-3-(4-(1-(cyclopropylmethyl)-1H-pyrazol-4-yl)pyridin-3-yl)-N-(4-(2-(morpholin-4-yl)ethyl)phenyl)acrylamide], the figures for the inhibition at 1 µM (on CDK8/CycC; on CDK19 (CDC2L6/CycC); in test [1]) were 94%, 97% and 58%, respectively.
In the same order, the values of `Cc1cc(NC(=O)/C=C/c2cnccc2-c2cnn(C)c2)ccc1CN1CCOCC1` [Example 109, (2E)-N-(3-Methyl-4-(morpholin-4-ylmethyl)phenyl)-3-(4-(1-methyl-1H-pyrazol-4-yl)pyridin-3-yl)acrylamide] are 96%, 98% and 58%.
Take `Cn1cc(-c2ccncc2/C=C/C(=O)Nc2ccc3c(c2)OCC3)cn1` [Example 116, (2E)-N-(2,3-dihydro-1-benzofuran-6-yl)-3-(4-(1-methyl-1H-pyrazol-4-yl)pyridin-3-yl)acrylamide]: the inhibition at 1 µM on CDK8/CycC is 100%; on CDK19 (CDC2L6/CycC), 94%; in test [1], 55%.
For `Cn1cc(-c2ccncc2/C=C/C(=O)Nc2ccc(CC(C)(C)O)cc2)cn1` [Example 123, (2E)-N-(4-(2-hydroxy-2-methylpropyl)phenyl)-3-(4-(1-methyl-1H-pyrazol-4-yl)pyridin-3-yl)acrylamide], the results for the inhibition at 1 µM (at CDK8/CycC; on CDK19 (CDC2L6/CycC); in test [1]) were 99%, 101% and 62%, respectively.
The like results for `Cn1cc(-c2ccncc2/C=C/C(=O)Nc2ccc(CCC(F)(F)F)cc2)cn1` [Example 124, (2E)-3-(4-(1-methyl-1H-pyrazol-4-yl)pyridin-3-yl)-N-(4-(3,3,3-trifluoropropyl)phenyl)acrylamide] were, in that order, 98%, 99% and 53%.
The like results for `Cn1cc(-c2ccncc2/C=C/C(=O)Nc2ccc(Oc3ccncc3)cc2)cn1` [Example 137, (2E)-3-(4-(1-methyl-1H-pyrazol-4-yl)pyridin-3-yl)-N-(4-(pyridin-4-yloxy)phenyl)acrylamide] were, in that order, 95%, 96% and 54%.
In the same order, the values of `Cc1cc(NC(=O)/C=C/c2cnccc2-c2cnn(C3CC3)c2)ccc1CN1CCOCC1` [Example 142, (2E)-3-(4-(1-cyclopropyl-1H-pyrazol-4-yl)pyridin-3-yl)-N-(3-methyl-4-(morpholin-4-ylmethyl)phenyl)acryalmide] are 98%, 99% and 62%.
As for `CC(C)(O)Cc1ccc(NC(=O)/C=C/c2cnccc2-c2cnn(C3CC3)c2)cc1` [Example 143, (2E)-3-(4-(1-cyclopropyl-1H-pyrazol-4-yl)pyridin-3-yl)-N-(4-(2-hydroxy-2-methylpropyl)phenyl)acrylamide], the results for the inhibition at 1 µM (at CDK8/CycC; at CDK19 (CDC2L6/CycC); in test [1]) were 100%, 103% and 61%, respectively.
For the compound `O=C(/C=C/c1cnccc1-c1cnsc1)Nc1ccc(CN2CCOCC2)cc1` [Example 145, (2E)-N-(4-(Morpholin-4-ylmethyl)phenyl)-3-(4-(1,2-thiazol-4-yl)pyridin-3-yl)acrylamide], the inhibition at 1 µM at CDK8/CycC was 90%; on CDK19 (CDC2L6/CycC) it was 94%; in test [1] it was 51%.
The like results for `Cn1cc(-c2ccncc2/C=C/C(=O)Nc2ccc(CN3CCOCC3)c(O)c2)cn1` [Example 148, (2E)-N-(3-Hydroxy-4-(morpholin-4-ylmethyl)phenyl)-3-(4-(1-methyl-1H-pyrazol-4-yl)pyridin-3-yl)acrylamide] were, in that order, 97%, 99% and 54%.
